pIC50: −log10 of the molar value. Calls of active or inactive are those of the source.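 The calls were made as follows: active = compounds whose peak USP7 inhibition across the dose series reached 30% or more; inactive = the rest.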
Target: Ubiquitin carboxyl-terminal hydrolase 7 (Homo sapiens) (UniProt Q93009)
Assay: Biochemical concentration-response for ubiquitin-specific peptidase 7 DUB inhibitors, verifying primary hits (AID 1645861)
Conditions: purified USP7, Ub-rhodamine cleavage fluorescence, 60 min

Sequence of Ubiquitin carboxyl-terminal hydrolase 7 (Homo sapiens) (Q93009 whole entry, looked up): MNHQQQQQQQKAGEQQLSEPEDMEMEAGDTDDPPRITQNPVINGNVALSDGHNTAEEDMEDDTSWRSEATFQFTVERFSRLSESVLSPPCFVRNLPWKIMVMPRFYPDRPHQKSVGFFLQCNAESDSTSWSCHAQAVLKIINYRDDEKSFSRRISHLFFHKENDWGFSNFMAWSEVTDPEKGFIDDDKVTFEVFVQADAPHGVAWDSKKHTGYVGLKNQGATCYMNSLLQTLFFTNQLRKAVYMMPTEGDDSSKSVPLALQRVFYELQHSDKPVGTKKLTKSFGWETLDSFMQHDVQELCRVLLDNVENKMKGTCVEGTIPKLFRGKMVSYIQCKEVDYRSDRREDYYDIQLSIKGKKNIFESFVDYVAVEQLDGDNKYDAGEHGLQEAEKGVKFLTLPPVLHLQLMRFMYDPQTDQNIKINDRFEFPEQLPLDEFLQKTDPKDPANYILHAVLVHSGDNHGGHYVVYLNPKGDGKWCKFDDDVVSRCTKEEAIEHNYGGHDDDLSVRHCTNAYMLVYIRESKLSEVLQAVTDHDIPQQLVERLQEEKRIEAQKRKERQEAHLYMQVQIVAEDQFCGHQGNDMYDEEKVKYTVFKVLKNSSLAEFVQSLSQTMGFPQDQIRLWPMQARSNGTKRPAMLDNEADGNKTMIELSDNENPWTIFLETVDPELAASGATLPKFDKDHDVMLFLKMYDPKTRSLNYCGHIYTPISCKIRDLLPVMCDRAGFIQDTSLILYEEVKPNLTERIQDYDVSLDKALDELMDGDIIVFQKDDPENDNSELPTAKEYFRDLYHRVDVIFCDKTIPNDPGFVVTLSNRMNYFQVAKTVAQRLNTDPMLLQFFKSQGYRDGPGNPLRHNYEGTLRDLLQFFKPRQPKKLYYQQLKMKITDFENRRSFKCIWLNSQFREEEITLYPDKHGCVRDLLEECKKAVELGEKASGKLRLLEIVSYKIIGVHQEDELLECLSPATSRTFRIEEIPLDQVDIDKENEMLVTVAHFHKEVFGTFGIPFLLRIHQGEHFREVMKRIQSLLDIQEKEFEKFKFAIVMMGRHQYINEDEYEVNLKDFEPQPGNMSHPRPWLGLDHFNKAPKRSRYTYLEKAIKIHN

Compound	IC50	pIC50
Cc1cc(C)cc(NC(=O)Nc2ccccc2OCc2cc(=O)n3c(ncn3C(C)C)n2)c1	> 50 µM (inactive)	
Cc1ccc2c(c1)N(C)C(=O)c1cc(NC(=O)c3ccc(F)cc3)ccc1O2	> 50 µM (inactive)	
Cc1ccc(NC(=O)Nc2ccc(C)n(CC(=O)Nc3ccc(C)c(C)c3)c2=O)cc1		4.41
CCCCCCCCCC(CCCCCCCCCC(=O)O)O[C@H]1O[C@@H](COC(C)=O)[C@H](O)[C@@H](O)[C@H]1OC(=O)CC(=O)O (some centres not stated)	> 50 µM (inactive)	
O=c1c(O)c(-c2ccc(O)c(O)c2)oc2cc(O)cc(O)c12		5.28
O=C(Nc1cccc([N+](=O)[O-])c1)Nc1ccc2snnc2c1		4.75
COc1ccc(OC)c(NC(=O)c2sc(-c3ccccc3)nc2C)c1	> 50 µM (inactive)	
O=C1c2ccccc2-c2nnc(-c3ccncc3)cc21	> 50 µM (inactive)	
CC[C@@H](C(=O)[C@@H](C)[C@@H](O)[C@H](C)CCc1ccc(C)c(O)c1C(=O)O)[C@@H]1O[C@](CC)([C@H]2CC[C@](O)(CC)[C@H](C)O2)C[C@@H]1C		4.54
COc1ccc2cc(C(=O)N3CCC(C(C)C(=O)NCc4cccc(F)c4)CC3)[nH]c2c1 (configuration not stated)	> 50 µM (inactive)	
Cn1c2ccccc2c(=O)c2c(=O)n(-c3cccc(Cl)c3)c(-c3cccs3)nc21		4.45
O=c1c2[nH]c3ccccc3c2ncn1Cc1ccncc1	> 50 µM (inactive)	
CCc1noc(-c2ccn3c(CC(=O)Nc4ccccc4C)nnc3c2)n1	> 50 µM (inactive)	
O=C(Nc1cccc(Br)c1)c1cc(-c2cccnc2)n[nH]1		4.31
Cc1ccc2c(c1)c(=O)c(C(=O)c1ccccc1)cn2CC(=O)Nc1ccccc1	> 50 µM (inactive)	
O=C(CSc1ncnc2c1oc1ccccc12)NCCc1ccccc1	> 50 µM (inactive)	
O=C(Cn1c(=O)n(CC2CCC(C(=O)NCCc3ccccc3)CC2)c(=O)c2ccccc21)NCc1ccco1 (configuration not stated)	> 50 µM (inactive)	
Oc1cccc2c(-c3ccc(O)c4c(O)cccc34)ccc(O)c12	> 50 µM (inactive)	
CC(C)Cc1ccc(-c2cc(-c3ccc(C(F)(F)F)cc3)c(C#N)c(=O)[nH]2)cc1	> 50 µM (inactive)	
CCCCN1Cc2sc(NC(=O)Nc3ccccc3C)nc2C1=O	> 50 µM (inactive)	
CC1OC2CC(O)C1(O)C1=C2C(O)=C(C(N)=O)C(=N)C1=O (configuration not stated)	> 50 µM (inactive)	
CCCCCCCCCc1cc(OC(=O)c2c(CCCCCCCCC)cc(O)cc2O[C@@H]2O[C@H](CO)[C@@H](O)[C@H](O)[C@H]2O)cc(O)c1C(=O)O		5.29

Compound	IC50	pIC50
Cc1cccc(NC(=O)Nc2ccccc2OCc2cc(=O)n3cccc(C)c3n2)c1	> 50 µM (inactive)	
O=C(c1cnc2[nH][nH]c(=O)c2c1)c1cc(Cl)cc(Cl)c1O		4.82
O=C1Cc2ccccc2C(=O)N1Cc1cccc(Cl)c1	> 50 µM (inactive)	
C[C@H](NC(=O)Cc1ccccc1F)c1nc2cc(-c3ccccc3F)ncn2n1	> 50 µM (inactive)	
CC(=O)[C@H]1c2c(c(O)c3c(O)cccc3c2-c2c3c(c(O)c4c(O)cccc24)C(=O)C[C@](C)(O)[C@H]3C(C)=O)C(=O)C[C@]1(C)O	> 50 µM (inactive)	
O=C(NCC1(c2ccccc2)CCC1)c1nc2n(n1)-c1ccccc1S(=O)(=O)N2	> 50 µM (inactive)	
CCCCCCCc1cc(OC(=O)c2c(CCCCCCC)cc(O)cc2O[C@@H]2O[C@H](CO)[C@@H](O)[C@H](O)[C@H]2O)cc(O)c1C(=O)O		5.00
CC(=O)NS(=O)(=O)c1ccc(NC(=O)/C=C/c2cn(-c3ccccc3)nc2-c2ccccc2)cc1		4.44
Cc1ccc(Cn2c(=O)c3ncccc3n(CC(=O)NCc3ccc(F)cc3)c2=O)cc1	> 50 µM (inactive)	
Cc1cccc(C)c1NC(=O)CN1C(=O)CC(c2ccccc2)=Nc2ccccc21	> 50 µM (inactive)	
O=C(NCc1ccc2c(c1)OCO2)c1cc2c(s1)CCC2	> 50 µM (inactive)	
COc1ccc(CCC(=O)Nc2nnc(C3CC(=O)N(c4ccc(C)cc4)C3)s2)cc1 (configuration not stated)	> 50 µM (inactive)	
Cc1nc(SCC(=O)NC(C)c2ccccc2)c2oc3ccccc3c2n1 (configuration not stated)	> 50 µM (inactive)	
Cc1[nH]nc(NC(=O)C2COc3ccccc3O2)c1-c1ccccc1 (configuration not stated)	> 50 µM (inactive)	
C[C@@H]1CO[C@@H]2C3=C(C(=O)C=CC3=O)[C@H]3OC(=O)[C@@H]4CCC5[C@@H]1CCC52C34 (some centres not stated)	> 50 µM (inactive)	
Cc1ccc(Cn2cc(-c3noc(C(=O)Nc4cc(F)ccc4F)n3)nn2)cc1	> 50 µM (inactive)	
O=C(Cn1c(=O)c2sccc2n(CC(=O)OCc2ccccc2)c1=O)NCc1ccccc1Cl	> 50 µM (inactive)	
O=C1CC(O)C(C2=CC(=O)c3c(O)cccc3C2=O)O1 (configuration not stated)		4.48
COC(=O)C1=CC(OC)=C(Cl)C(=O)C12OC(=O)c1c(O)cc(C)cc1O2 (configuration not stated)	> 50 µM (inactive)	
COc1ccccc1CNC(=O)CCCCn1c(=O)c2ccccc2n(CC(=O)Nc2ccc(C)cc2C)c1=O	> 50 µM (inactive)	
CC/C=C\C/C=C\C/C=C\CCCCCCCC(=O)O		4.59
Cc1nn(-c2ccccc2)c2c1N=C1C(Cl)=CC(Cl)=CN1C21C(=O)Nc2ccccc21 (configuration not stated)		4.76

Compound	IC50	pIC50
Cc1ccc(NC(=O)Cn2cncc(-c3nc(-c4ccccc4)cs3)c2=O)cc1F	> 50 µM (inactive)	
COC(=O)c1c(OC)cc2c(c1C)Oc1c(Cl)c(O)c(Cl)c(C)c1C(=O)O2	> 50 µM (inactive)	
CCn1cc2c(n1)c(=O)n(Cc1ccccc1)c(=O)n2CC(=O)Nc1ccc(C(C)C)cc1	> 50 µM (inactive)	
Cc1noc(-c2cc(=O)n(CC(=O)Nc3ccccc3Cl)c3ccccc23)n1	> 50 µM (inactive)	
Cc1cc(O)c2c3c(c(O)cc2c1)C(=O)c1c(O)cccc1C3=O		4.71
Cc1ccc(C(=O)NC(C)c2ccccc2)cc1NC(=O)c1nsc2ccccc12 (configuration not stated)	> 50 µM (inactive)	
Cc1ccc(CNC(=O)Cn2c(=O)n(CCCC(=O)NCc3ccc(F)cc3)c(=O)c3ccccc32)cc1	> 50 µM (inactive)	
CCC(=O)Nc1nc2cc(NC(=O)Nc3cccc(C)c3)ccc2s1	> 50 µM (inactive)	
COc1cccc(C(=O)Nc2ccc(SC(C)C(=O)Nc3ccc(C(N)=O)cc3)cc2)c1 (configuration not stated)	> 50 µM (inactive)	
Cc1nc(C(=O)NC2(O)C(=O)c3ccccc3C2=O)cs1	> 50 µM (inactive)	
Cn1nc(Cl)c(Cl)c1Oc1ccc(S(=O)(=O)Nc2ccc(Oc3ccc(C(F)(F)F)cn3)c(Cl)c2)cc1		4.33
Cc1ccc(-n2cc(-c3noc(C(=O)Nc4ccc(F)cc4C)n3)nn2)cc1	> 50 µM (inactive)	
N#Cc1cccc(NC(=O)COC(=O)c2n[nH]c3ccccc23)c1	> 50 µM (inactive)	
Cc1nc(-c2ccc(Cl)cc2)oc1C(=O)Nc1ccc(Cl)cc1	> 50 µM (inactive)	
Cn1c2ccccc2c(=O)c2c(=O)n(Cc3ccco3)c(-c3ccccc3F)nc21	> 50 µM (inactive)	
Cc1ccc(CNC(=O)CCCn2c(=O)c3sccc3n(CC(=O)Nc3cc(Cl)ccc3C)c2=O)cc1	> 50 µM (inactive)	
Cc1ccc2[nH]c(=O)c(-c3nc4ccc(C)cn4c3NCc3ccc(F)cc3)cc2c1		4.61
O=C1Nc2ccccc2C(=O)C1C(c1ccc(Cl)cc1)C1C(=O)Nc2ccccc2C1=O (configuration not stated)		4.35
COc1ccc(Cl)cc1NC(=O)Cn1c(=O)n(CCCCC(=O)NCCc2ccccc2)c(=O)c2ccccc21	> 50 µM (inactive)	
CCOC(=O)c1ccc(NC(=O)Cn2c(=O)n(-c3ccc(CC(=O)NCc4ccco4)cc3)c(=O)c3ccccc32)cc1	> 50 µM (inactive)	
Cc1cc(C(=O)N2CCOCC2)c(C)n1-c1ccc(O)cc1	> 50 µM (inactive)	
Cc1ccc(NC(=O)Cc2nnc3c(-c4nc(C5CC5)no4)cccn23)cc1		4.45

Compound	IC50	pIC50
Cc1ccc2[nH]c3c(=O)n(Cc4ccc(N(C)C)cc4)cnc3c2c1	> 50 µM (inactive)	
Cc1cc(=O)n(C)c2c(O)c3c(cc12)c(C)cc(=O)n3C	> 50 µM (inactive)	
CSC1SCC2C(=O)N(C)C(C(C)C(C)C)C(=O)OCC(NC(=O)c3cnc4ccccc4n3)C(=O)NC(C)C(=O)N(C)C1C(=O)N(C)C(C(C)C(C)C)C(=O)OCC(NC(=O)c1cnc3ccccc3n1)C(=O)NC(C)C(=O)N2C (configuration not stated)	> 50 µM (inactive)	
Cc1nc(N2CCCC2)ncc1-c1cc(=O)[nH]c(Nc2ccc(Cl)cc2Cl)n1	> 50 µM (inactive)	
O=C(NC1(O)C(=O)c2ccccc2C1=O)c1ccc(-c2csnn2)cc1	> 50 µM (inactive)	
COC(=O)c1ccccc1NC(=O)Cn1c(=O)n(Cc2ccc(C(=O)NCc3ccco3)cc2)c(=O)c2ccccc21	> 50 µM (inactive)	
COc1ccc(C(=O)COC(=O)c2ccccc2NS(=O)(=O)c2ccc(O)c([N+](=O)[O-])c2)cc1		4.31
CCCCCC1OC(=O)c2c(C)cccc2Oc2ccc(O)c(C=O)c2/C=C/C1O (configuration not stated)	> 50 µM (inactive)	
Cc1ccc2[nH]c(=O)c(-c3nc4ccccn4c3NCc3ccccc3)cc2c1	> 50 µM (inactive)	
COc1ccc(NC(=O)Cn2cc(C(=O)c3ccccc3)c(=O)c3cc(Cl)ccc32)cc1OC	> 50 µM (inactive)	
CCOC(=O)c1cc2c(ccn2-c2ccc(F)cc2)n1CC(=O)Nc1ccc2c(c1)OCCO2	> 50 µM (inactive)	
COc1ccc(NC(=O)Cn2cc(C(=O)c3ccc(C)cc3)c(=O)c3ccccc32)cc1	> 50 µM (inactive)	
Cc1ccc2nc(CNc3ccc(F)cc3C)cc(=O)n2c1	> 50 µM (inactive)	
O=C(Nc1ccc(-c2cn3ccsc3n2)cc1)c1ccc(Cl)c([N+](=O)[O-])c1		4.40
O=C(NCc1ccc(F)cc1)c1cccc(Nc2nc3ccccc3n3cnnc23)c1	> 50 µM (inactive)	
Cc1ccc(NCc2cc3c(-c4cccc(F)c4)nn(-c4ccccc4)c3[nH]c2=O)cc1C		5.05
CC1CCCN(S(=O)(=O)c2ccc(-n3cnc(C(=O)NC4CC4)c3)nc2)C1 (configuration not stated)	> 50 µM (inactive)	
CCOc1ccc(-n2c(=O)c3sccc3n(CC(=O)Nc3cccc(C)c3)c2=O)cc1	> 50 µM (inactive)	
CC(C)=CCCC1(C)C=Cc2c(O)c3c(c(CC=C(C)C)c2O1)OC12C(=CC4CC1C(C)(C)OC2(C/C=C(/C)C(=O)O)C4=O)C3=O (configuration not stated)		4.76
O=C(CSc1nnc2c3ccccc3nc(-c3ccco3)n12)N1CCCc2ccccc21	> 50 µM (inactive)	
O=C(CC1C(=O)Nc2nc3ccccc3n21)Nc1cccc2ccccc12 (configuration not stated)	> 50 µM (inactive)	
